Results from US20240318160A1 (Wisconsin Alumni Research Foundation, priority 2023, published 2024).

How the values were obtained:
Type in all cases: biochemical
[1] = test system: Joinvillea ascendens JaPAL (SEQ ID NO: 28) variant JaPAL^F140H_MUT16 (F140H plus PTAL-type residues at 70, 102, 110, 112, 121, 129, 135, 138, 267, 271, 279 …); assay: TAL and PAL enzyme kinetics; details: PAL assay (L-Phe), pH 8.5, 30° C.
Experimental: (§1) To investigate the potential role of these residues in TAL activity, we generated two JaPAL mutant enzymes, one with PTAL-type substitutions in the 8 circle residues and the other with PTAL-type substitutions in both the circle and triangle residues (Table 4) in addition to the F140H mutation (JaPAL^F140H_MUT8 and JaPAL^F140H_MUT16, respectively).
(§2) A mixture containing 100 mM Tris-HCl (pH 8.5), 1% glycerol, and purified enzyme in a total volume of 50 μl was preincubated for 3 min at 30° C. […] The reactions were terminated by addition of 6N acetic acid (10 μl).
(§3) The kinetic parameters of the recombinant enzymes were determined using HPLC. Reaction mixtures containing 100 mM Tris-HCl (pH 8.5), 1% glycerol, and purified enzyme (0.15 μg for PAL assay and 1 μg for TAL assay) in a 50 μl total volume were preincubated for 3 min at 30° C. […] After 10 min and 20 min incubations for PAL and TAL assay, respectively, at 30° C., the reaction was terminated by addition of 6N acetic acid (10 μl). […] The products were quantified using calibration curves generated using authentic standards. Non-linear hyperbolic regression analyses were conducted using the Excel Solver tool to calculate Km and Vmax values.

[2] = test system: Joinvillea ascendens JaPAL (SEQ ID NO: 28) variant JaPAL^F140H_MUT8 (F140H plus PTAL-type residues at 102, 112, 121, 138, 267, 444, 448, 500); assay: TAL and PAL enzyme kinetics
Experimental: as §1, §2, §3

[3] = test system: Joinvillea ascendens JaPAL^F140H_MUT8 variant A448S; assay: TAL and PAL enzyme kinetics; details: PAL assay (L-Phe), pH 8.5, 30° C.
Experimental: (§4) To determine which of the 8 circle residues are essential in the conversion of PAL enzymes to PTAL enzymes (FIG. 3C), we mutated, one by one, each one of these 8 residues back to the PAL type in JaPAL^F140H_MUT8 and determined their effects on catalytic efficiency.
as §2, §3

[4] = test system: Joinvillea ascendens JaPAL^F140H_MUT8 variant G121A; assay: TAL and PAL enzyme kinetics; details: PAL assay (L-Phe), pH 8.5, 30° C.
Experimental: as §4, §2, §3

[5] = test system: Joinvillea ascendens JaPAL^F140H_MUT8 variant I102V; assay: TAL and PAL enzyme kinetics; details: PAL assay (L-Phe), pH 8.5, 30° C.
Experimental: as §4, §2, §3

[6] = test system: Joinvillea ascendens JaPAL^F140H_MUT8 variant I122S (in Table 3; I112S in text); assay: TAL and PAL enzyme kinetics; details: PAL assay (L-Phe), pH 8.5, 30° C.
Experimental: as §4, §2, §3

[7] = test system: Joinvillea ascendens JaPAL^F140H_MUT8 variant L138I; assay: TAL and PAL enzyme kinetics; details: PAL assay (L-Phe), pH 8.5, 30° C.
Experimental: as §4, §2, §3

[8] = test system: Joinvillea ascendens JaPAL^F140H_MUT8 variant S267A; assay: TAL and PAL enzyme kinetics; details: PAL assay (L-Phe), pH 8.5, 30° C.
Experimental: as §4, §2, §3

[9] = test system: Joinvillea ascendens JaPAL^F140H_MUT8 variant T444P; assay: TAL and PAL enzyme kinetics; details: PAL assay (L-Phe), pH 8.5, 30° C.
Experimental: as §4, §2, §3

[10] = test system: Joinvillea ascendens JaPAL^F140H_MUT8 variant V500I; assay: TAL and PAL enzyme kinetics; details: PAL assay (L-Phe), pH 8.5, 30° C.
Experimental: as §4, §2, §3

[11] = test system: Joinvillea ascendens JaPAL variant F140H/S112I (JaPAL^F140H_S112I), SEQ ID NO: 145; assay: TAL and PAL enzyme kinetics; details: PAL assay (L-Phe), pH 8.5, 30° C.
Experimental: (§5) To test this hypothesis further, the reciprocal S112I mutation was introduced into the JaPAL^F140H single mutant to generate the JaPAL^F140H_S112I double mutant. For comparison, a single mutant in which the residue corresponding to Ser112 was converted to Ile (i.e., JaPAL^S112I) was generated as well.
as §2, §3

[12] = test system: Joinvillea ascendens JaPAL variant S112I (JaPAL^S112I), SEQ ID NO: 258; assay: TAL and PAL enzyme kinetics; details: PAL assay (L-Phe), pH 8.5, 30° C.
Experimental: as §5, §2, §3

[13] = test system: PAL^F140H mutants (JaPAL^F140H, EmoPAL^F134H, BdPAL^F137H, SbPAL^F135H); assay: TAL and PAL enzyme kinetics, group of enzymes; details: PAL activity, on average
Experimental: as §3

grass PTAL enzymes = assay: TAL and PAL enzyme kinetics, group of enzymes; details: PAL activity (L-Phe), range over grass PTAL enzymes
Experimental: as §3

[14] = PAL assay (L-Phe), pH 8.5, 30° C.

With N[C@@H](Cc1ccccc1)C(=O)O [L-Phe, phenylalanine] the Km [1] was 455 ± 4.6 µM, the kcat [1] was 0.46 ± 0.01 s⁻¹ and the kcat/Km [1] was 1010 ± 0 M⁻¹ s⁻¹. For the same compound, the “Km for Phe relative to wild-type JaPTAL” value ([2]; PAL activity, higher than JaPTAL) was 2 fold, the Km [2, 14] was 141 ± 6.3 µM and the kcat [2, 14] was 0.60 ± 0.01 s⁻¹. It also gave a kcat/Km [2, 14] of 4250 ± 220 M⁻¹ s⁻¹, a Km [3] of 168 ± 11.3 µM and a kcat [3] of 0.80 ± 0.03 s⁻¹. It also gave a kcat/Km [3] of 4790 ± 430 M⁻¹ s⁻¹, a Km [4] of 58.1 ± 3.4 µM and a kcat [4] of 0.57 ± 0.02 s⁻¹. The kcat/Km [4] was 9880 ± 310 M⁻¹ s⁻¹, the Km [5] was 232 ± 3.5 µM and the kcat [5] was 0.74 ± 0.01 s⁻¹. The kcat/Km [5] was 3190 ± 80 M⁻¹ s⁻¹, the Km [6] was 2290 ± 344 µM and the kcat [6] was 0.29 ± 0.04 s⁻¹. It also gave a kcat/Km [6] of 310 ± 0 M⁻¹ s⁻¹, a Km [7] of 74.3 ± 1.1 µM and a kcat [7] of 0.66 ± 0.01 s⁻¹. The kcat/Km [7] was 8860 ± 10 M⁻¹ s⁻¹, the Km [8] was 317 ± 6.6 µM and the kcat [8] was 0.85 ± 0.04 s⁻¹. For the same compound, the kcat/Km [8] was 2670 ± 60 M⁻¹ s⁻¹, the Km [9] was 192 ± 3.6 µM and the kcat [9] was 0.90 ± 0.05 s⁻¹. For the same compound, the kcat/Km [9] was 4700 ± 220 M⁻¹ s⁻¹, the Km [10] was 151 ± 3.7 µM and the kcat [10] was 0.82 ± 0.02 s⁻¹. The kcat/Km [10] was 5450 ± 140 M⁻¹ s⁻¹, the Km [11] was 67.3 ± 2.5 µM and the kcat [11] was 0.77 ± 0.01 s⁻¹. It also gave a kcat/Km [11] of 11460 ± 210 M⁻¹ s⁻¹, a Km [12] of 2.6 ± 0.5 µM and a kcat [12] of 0.21 ± 0.04 s⁻¹. For the same compound, the kcat/Km [12] was 79800 ± 0 M⁻¹ s⁻¹, the “Km toward Phe relative to corresponding wild-type enzymes” value [13] was 35 fold and the Km (grass PTAL enzymes) was 150 to 227 µM.
